Experimental data as given in ChEMBL document CHEMBL1128555, “Derivatives of 5-[[1-(4'-carboxybenzyl)imidazolyl]methylidene]hydantoins as orally active angiotensin II receptor antagonists” (J Med Chem, 1995).
Activity calls are given as the source filed them. The rule behind the calls is not given here.

Columns and labels:
[1] = biological target: T1, Angiotensin II receptor (AT-1) type-1 (Rattus norvegicus, UniProt P29089+P25095); assay: Binding affinity expressed as IC50 to the Angiotensin II receptor, type 1, from rat liver membrane
T1 sequence (P29089 whole entry): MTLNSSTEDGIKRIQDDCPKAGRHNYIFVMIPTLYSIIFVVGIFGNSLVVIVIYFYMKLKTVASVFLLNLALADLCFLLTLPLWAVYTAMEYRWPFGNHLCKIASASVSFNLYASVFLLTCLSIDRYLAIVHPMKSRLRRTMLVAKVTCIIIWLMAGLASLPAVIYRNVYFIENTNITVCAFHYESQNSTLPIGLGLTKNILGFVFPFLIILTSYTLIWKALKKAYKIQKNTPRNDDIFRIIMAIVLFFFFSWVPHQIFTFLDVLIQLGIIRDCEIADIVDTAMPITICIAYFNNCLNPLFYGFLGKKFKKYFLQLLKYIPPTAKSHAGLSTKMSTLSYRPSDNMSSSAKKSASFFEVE
T1 sequence (P25095 whole entry): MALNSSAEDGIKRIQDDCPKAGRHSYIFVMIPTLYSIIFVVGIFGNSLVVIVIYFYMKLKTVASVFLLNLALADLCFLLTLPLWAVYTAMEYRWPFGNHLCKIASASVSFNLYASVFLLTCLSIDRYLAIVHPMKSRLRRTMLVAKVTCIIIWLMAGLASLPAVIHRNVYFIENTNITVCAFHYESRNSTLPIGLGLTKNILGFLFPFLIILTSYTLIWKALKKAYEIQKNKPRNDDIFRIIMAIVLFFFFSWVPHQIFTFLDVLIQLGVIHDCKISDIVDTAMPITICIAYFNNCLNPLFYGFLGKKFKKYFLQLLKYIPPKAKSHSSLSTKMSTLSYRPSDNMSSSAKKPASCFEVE

[2] = biological target: Angiotensin II receptor (AT-1) type-1 (Rattus norvegicus) (UniProt P29089+P25095); assay: Antihypertensive activity in renal hypertensive rats (RHR) at 30 mg/Kg dose after oral administration; format: functional, organism-based
Rattus norvegicus [3] = assay: The compound was tested for antihypertensive activity in Renal Hypertensive Rats(RHR) at following doses after oral administration. of 10 mg/kg; format: functional
[4] = biological target: Angiotensin II receptor type-1 (Oryctolagus cuniculus) (UniProt P34976); assay: Inhibition of angiotensin II induced contraction in rabbit aortic ring, activity is expressed as IC50
Angiotensin II receptor type-1 (Oryctolagus cuniculus), sequence (P34976 whole entry, looked up): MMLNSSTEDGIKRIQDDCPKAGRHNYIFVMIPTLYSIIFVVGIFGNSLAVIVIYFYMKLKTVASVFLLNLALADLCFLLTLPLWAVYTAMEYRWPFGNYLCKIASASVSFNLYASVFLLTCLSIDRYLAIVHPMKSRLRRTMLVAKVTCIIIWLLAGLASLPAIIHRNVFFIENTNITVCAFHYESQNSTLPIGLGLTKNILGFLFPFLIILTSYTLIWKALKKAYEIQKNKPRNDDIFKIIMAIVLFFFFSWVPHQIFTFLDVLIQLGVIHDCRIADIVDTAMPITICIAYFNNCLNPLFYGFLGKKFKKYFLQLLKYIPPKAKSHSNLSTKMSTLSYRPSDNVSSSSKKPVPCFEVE

Rattus norvegicus [5] = assay: The compound was tested for antihypertensive activity in Renal Hypertensive Rats(RHR) at 10 mg/Kg dose after oral administration; format: functional
Rattus norvegicus [6] = assay: The compound was tested for antihypertensive activity in Renal Hypertensive Rats(RHR) at 30 mg/Kg dose after oral administration; inactive; format: functional, organism-based
Monkey [7] = assay: Baseline blood pressure was determined at 10 mg/kg in salt-deplete Normotensive Monkeys; format: functional, Cercopithecidae
Monkey [8] = assay: Minimum blood pressure was determined at 10 mg/kg in salt-deplete Normotensive Monkeys; format: functional, Cercopithecidae
Monkey [9] = assay: Blood pressure determined at 10 mg/kg in salt-deplete Normotensive Monkeys; format: functional, Cercopithecidae
Monkey [10] = assay: blood pressure determined at 10 mg/kg in salt-deplete Normotensive Monkeys; format: functional, Cercopithecidae

IC50 [1]	IC50 [4]	Structure (SMILES)	Maximum blood pressure change [2]	other results
0.9 nM	10 nM	CCCCc1ncc(/C=C2/C(=O)N(CCCC)C(=O)N2Cc2ccsc2)n1Cc1ccc(C(=O)O)cc1	-42%	Max (Rattus norvegicus [3]): -28%
1.2 nM	290 nM	CCCCc1ncc(/C=C2/C(=O)N(CCCC)C(=O)N2Cc2csc(N)n2)n1Cc1ccc(C(=O)OC)cc1	-37%	Max (Rattus norvegicus [5]): -39%
2.3 nM	18 nM	CCCCc1ncc(/C=C2/C(=O)NC(=O)N2Cc2cccs2)n1Cc1ccc(C(=O)O)cc1	-21%	
10.1 nM	> 100 nM	CCCCc1ncc(/C=C2/C(=O)N(CCCC)C(=O)N2Cc2ccno2)n1Cc1ccc(C(=O)OC)cc1	-23%	
0.7 nM	13 nM	CCCCc1ncc(/C=C2/C(=O)N(CCCC)C(=O)N2Cc2cccs2)n1Cc1ccc(C(=O)O)cc1	-28%	
0.6 nM	5.3 nM	CCCCc1ncc(/C=C2/C(=O)N(CCCC)C(=O)N2Cc2ccc(C)s2)n1Cc1ccc(C(=O)O)cc1	-22%	
1.9 nM		CCCCc1ncc(/C=C2/C(=O)N(CCCC)C(=O)N2Cc2csc(C)n2)n1Cc1ccc(C2(C(=O)O)CCCC2)cc1	-16%	
3 nM	28 nM	CCCCc1ncc(/C=C2/C(=O)NC(=O)N2Cc2ccc(Cl)cc2)n1Cc1ccc(C(=O)O)cc1	-17%	
8.3 nM	> 100 nM	CCCCc1ncc(/C=C2/C(=O)N(CCCC)C(=O)N2Cc2ccoc2)n1Cc1ccc(C(=O)OC)cc1	-22%	
0.6 nM	2.9 nM	CCCCc1ncc(/C=C2/C(=O)N(CCCC)C(=O)N2Cc2csc(N)n2)n1Cc1ccc(C(=O)O)cc1		Max [2]: inactive
1.2 nM	2.6 nM	CCCCc1ncc(/C=C2/C(=O)N(CCCC)C(=O)N2Cc2csc(C)n2)n1Cc1ccc(C(=O)O)cc1	-34%	
7.1 nM	28 nM	CCCCc1ncc(/C=C2/C(=O)NC(=O)N2Cc2cccs2)n1Cc1ccc(C(=O)OC)cc1	-19%	
5.3 nM	> 100 nM	CCCCCCN1C(=O)/C(=C/c2cnc(CCCC)n2Cc2ccc(C(=O)OC)cc2)N(Cc2csc(C)n2)C1=O	-34%	
0.7 nM	9.2 nM	CCCCc1ncc(/C=C2/C(=O)N(CCCC)C(=O)N2Cc2csc(C)c2)n1Cc1ccc(C(=O)O)cc1	-23%	Max (Rattus norvegicus [3]): -28%
1.4 nM	40 nM	CCCCc1ncc(/C=C2/C(=O)NC(=O)N2CCCC)n1Cc1ccc(-c2ccccc2-c2nn[nH]n2)cc1	0%	
1.5 nM	21 nM	CCCCc1ncc(/C=C2/C(=O)N(CCCC)C(=O)N2Cc2cc(C)cs2)n1Cc1ccc(C(=O)O)cc1	-16%	
3.8 nM	350 nM	CCCCc1ncc(/C=C2/C(=O)N(CCCC)C(=O)N2Cc2csc(C)n2)n1Cc1ccc(C(=O)OC)cc1	-40%	Blood pressure (Monkey [7]): 101 mmHg; Blood pressure (Monkey [8]): 74 mmHg; Blood pressure (Monkey [10]): 88 mmHg; Max (Rattus norvegicus [5]): -25%

The next lines start with the compound.

Structure (SMILES)	IC50 [1]	IC50 [4]	Maximum blood pressure change [2]	other results
CCCCc1ncc(/C=C2/C(=O)N(CCCC)C(=O)N2Cc2ccc(Cl)cc2)n1Cc1ccc(C(=O)OC)cc1	17.6 nM	500 nM	-15%	
CCCCc1ncc(/C=C2\C(=O)NC(=O)N2Cc2cccs2)n1Cc1ccc(C(=O)O)cc1	2.6 nM			Max (Rattus norvegicus [6]): inactive
CCCCc1ncc(/C=C2/C(=O)NC(=O)N2CCCC)n1Cc1ccc(NS(=O)(=O)C(F)(F)F)cc1	3.3 nM	120 nM	-11%	
CCCCc1ncc(/C=C2\C(=O)NC(=O)N2CCCC)n1Cc1ccc(C(=O)O)cc1		44 nM		Max (Rattus norvegicus [6]): inactive
CCCCc1ncc(/C=C2/C(=O)N(CCCC)C(=O)N2CCCC)n1Cc1ccc(C(=O)O)cc1	1.3 nM	14 nM	-45%	Max (Rattus norvegicus [5]): -21%
CCCCc1ncc(/C=C2/C(=O)NC(=O)N2CCCC)n1Cc1ccc(-c2nn[nH]n2)cc1	7.1 nM	40 nM	0%	
CCCCc1ncc(/C=C2/C(=O)N(CCCC)C(=O)N2Cc2csc(C)n2)n1Cc1ccc(C(=O)O)cc1Cl				Blood pressure (Monkey [7]): 100 mmHg; Blood pressure (Monkey [8]): 80 mmHg; Blood pressure (Monkey [9]): 85 mmHg
CCCCc1ncc(/C=C2/C(=O)N(CCCC)C(=O)N2CCCC)n1Cc1ccc(C(=O)OC)cc1	8.5 nM	460 nM	-27%	
CCCCc1ncc(/C=C2/C(=O)N(CCCC)C(=O)N2Cc2cccs2)n1Cc1ccc(C(=O)OC)cc1	3.4 nM	370 nM	-28%	
CCCCc1ncc(/C=C2/C(=O)NC(=O)N2CCCC)n1Cc1ccc(C(=O)OC)cc1	3.5 nM	30 nM	-11%	
CCCCc1ncc(/C=C2/C(=O)N(CCCC)C(=O)N2Cc2ccccn2)n1Cc1ccc(C(=O)OC)cc1	5.8 nM	490 nM	-20%	
CCCCc1ncc(/C=C2/C(=O)NC(=O)N2CCCC)n1Cc1ccc(C(=O)O)cc1	2.8 nM	28 nM	-17%	
